Source: patent US5977386A, “6-thio-substituted paclitaxels” (Bristol-Myers Squibb Company, priority 1997, dated 1999)
Where two headings read alike, the source gives them in different places.

What was measured:
[1] = tested on: HCT-116 human colon carcinoma cells; experiment: MTS cytotoxicity assay (72 h exposure); format: cell-based
Experimental: Cytoxicity was assessed in HCT-116 human colon carcinoma cells by MTS (3-(4,5-dimethylthiazol-2-yl)-5-(3-carboxymethoxyphenyl)-2-(4-sulphenyl)-2H-tetrazolium, inner salt) assay as reported in T. L. Riss, et. al., "Comparison of MTT, XTT, and a novel tetrazolium compound MTS for in vitro proliferation and chemosensitivity assays.," Mol. Biol. Cell 3 (Suppl.):184a, 1992. Cells were plated at 4,000 cell/well in 96 well microtiter plates and 24 hours later drugs were added and serial diluted. The cells were incubated at 37° for 72 hours at which time the tetrazolium dye, MTS at 333 μg/ml (final concentration), in combination with the electron coupling agent phenazine methosulfate at 25 μM (final concentration) was added. A dehydrogenase enzyme in live cells reduces the MTS to a form that absorbs light at […] which can be quantitated spectrophotometrically. The greater the absorbance the greater the number of live cells. The results are expressed as an IC50, which is the drug concentration required to inhibit cell proliferation (i.e. absorbance at 450 nm) to 50% of that of untreated control cells. The IC50 values for compounds evaluated in this assay are evaluated in Table I.
^1 Cytotoxicity was determined after a 72 h exposure by MTS assay.

M5076 murine sarcoma = experiment: sc M5076 murine sarcoma model, tumor growth delay; format: in vivo; conditions: sc M5076, iv on days 1, 3, 5, 7, and 9 post-implant, at optimal dose
Experimental: M5076: Taxane derivatives were tested in the M5076 murine sarcoma model using the general materials and methods described by Rose, W. C. in Anticancer Research 6: 557-562, 1986, for subcutaneous M5076 implants, with the following modifications: treatments were administered intravenously on Days 1, 3, 5, 7, and 9 post-tumor implant using eight mice per treatment and untreated control group. Activity was determined based on an increase in lifespan (as described in the preceding reference) of […], and, in particular, on a delay in tumor growth equivalent to at least 1 gross log cell kill (LCK). The latter was calculated as described in Rose, W. C. and Basler, G. A. in In Vivo 4: 391-396, 1990.
(§1) ^a Optimal dose (mg/kg/inj) if active, otherwise, maximal tolerated
(§2) dose (MTD) or highest dose tested.

M109 lung carcinoma = experiment: Mice M109 Model (In-Vivo), ip M109 lung carcinoma, median survival; design: species or system mouse; conditions: ip M109, Balb/c×DBA/2 F1 mice, ip injections days 5 and 8 post-implant, at optimal dose
Experimental: Balb/c×DBA/2 F1 hybrid mice were implanted intraperitoneally, as described by William Rose in Evaluation of Madison 109 Lung Carcinoma as a Model for Screening Antitumor Drugs, Cancer Treatment Reports, 65, No. 3-4 (1981), with 0.5 mL of a 2% (w/v) brei of M109 lung carcinoma.
Mice were treated with compounds under study by receiving intraperitoneal injections of various doses on days 5 and 8 post-implant. Mice were followed daily for survival until approximately 75 days post-tumor implant. One group of mice per experiment remained untreated and served as the control group.
Median survival times of compound-treated (T) mice were compared to the median survival time of the control (C) mice. The ratio of the two values for each compound-treated group of mice was multiplied by 100 and expressed as a percentage (i.e. % T/C) in the following Table II for representative compounds.
as §1, §2

[2] = Homo sapiens, HCT-116, 72 h, read-out: Cytotoxicity Assay IC50 against HCT 116 Human colon tumor cell line
[3] = Homo sapiens, HCT-116, read-out: Cytotoxicity Assay IC50 against HCT 116 Human colon tumor cell line

SMILES	IC50 [1, 2] [nM]	IC50 ([1]; 4320 min, read-out: Cytotoxicity Assay IC50 against HCT 116 Human colon tumor cell line) [nM]	Maximum T-C in LCK (gross log cell kill) (M5076 murine sarcoma) [LCK]	IC50 [1, 3] [nM]	Maximum % T/C (ratio of median survival times treated/control x 100) (M109 lung carcinoma) [%]
CC(=O)O[C@H]1C(=O)[C@]2(C)C[C@@H](SCc3ccccc3)[C@H]3OC[C@@]3(OC(C)=O)[C@H]2[C@H](OC(=O)c2ccccc2)[C@]2(O)C[C@H](OC(=O)[C@H](O)[C@@H](NC(=O)c3ccccc3)c3ccccc3)C(C)=C1C2(C)C [Compound 32, 6-b-thiobenzyl-7-deoxypaclitaxel]	5.27	–	–	–	–
CC(=O)O[C@H]1C(=O)[C@]2(C)C[C@@H]([S+](C)[O-])[C@H]3OC[C@@]3(OC(C)=O)[C@H]2[C@H](OC(=O)c2ccccc2)[C@]2(O)C[C@H](OC(=O)[C@H](O)[C@@H](NC(=O)c3ccccc3)c3ccccc3)C(C)=C1C2(C)C (single isomer, unassigned) [Compound 19a, 7-deoxy-6β-methyl sulfoxide-paclitaxel]	–	> 111	–	–	–
CC(=O)O[C@H]1C(=O)[C@]2(C)C[C@@H](SCC(N)=O)[C@H]3OC[C@@]3(OC(C)=O)[C@H]2[C@H](OC(=O)c2ccccc2)[C@]2(O)C[C@H](OC(=O)[C@H](O)[C@@H](NC(=O)c3ccccc3)c3ccccc3)C(C)=C1C2(C)C [Compound 44, 7-deoxy-6b-thioacetamidepaclitaxel]	11	–	0	–	–
CC(=O)O[C@H]1C(=O)[C@]2(C)C[C@@H](S)[C@H]3OC[C@@]3(OC(C)=O)[C@H]2[C@H](OC(=O)c2ccccc2)[C@]2(O)C[C@H](OC(=O)[C@H](O)[C@@H](NC(=O)c3ccccc3)c3ccccc3)C(C)=C1C2(C)C [Compound 13, 7-deoxy-6β-thio-paclitaxel]	–	–	0.5	26.1	–
CC(=O)CS[C@@H]1C[C@@]2(C)C(=O)[C@H](OC(C)=O)C3=C(C)[C@@H](OC(=O)[C@H](O)[C@@H](NC(=O)c4ccccc4)c4ccccc4)C[C@@](O)([C@@H](OC(=O)c4ccccc4)[C@@H]2[C@]2(OC(C)=O)CO[C@H]12)C3(C)C [Compound 34, 6-b-thiomethyl methyl keto-7-deoxytaclitaxel]	1.2	–	–	–	168
C=CCOC(=O)CS[C@@H]1C[C@@]2(C)C(=O)[C@H](OC(C)=O)C3=C(C)[C@@H](OC(=O)[C@H](O)[C@@H](NC(=O)c4ccccc4)c4ccccc4)C[C@@](O)([C@@H](OC(=O)c4ccccc4)[C@@H]2[C@]2(OC(C)=O)CO[C@H]12)C3(C)C [Compound 42, 7-deoxy-6b-allyl thioacetatepaclitaxel]	9	–	–	–	106
CC(=O)O[C@H]1C(=O)[C@]2(C)C[C@@H](SCCO)[C@H]3OC[C@@]3(OC(C)=O)[C@H]2[C@H](OC(=O)c2ccccc2)[C@]2(O)C[C@H](OC(=O)[C@H](O)[C@@H](NC(=O)c3ccccc3)c3ccccc3)C(C)=C1C2(C)C [Compound 15, 7-deoxy-6β-(2-hydroxyethyl)thio-paclitaxel]	–	–	0.3	1.8	–
CC(=O)O[C@H]1C(=O)[C@]2(C)C[C@@H](SCC#N)[C@H]3OC[C@@]3(OC(C)=O)[C@H]2[C@H](OC(=O)c2ccccc2)[C@]2(O)C[C@H](OC(=O)[C@H](O)[C@@H](NC(=O)c3ccccc3)c3ccccc3)C(C)=C1C2(C)C [Compound 36, 6b-thioacetonitrile-7-deoxypaclitaxel]	4.4	–	1.1	–	–
COCS[C@@H]1C[C@@]2(C)C(=O)[C@H](OC(C)=O)C3=C(C)[C@@H](OC(=O)[C@H](O)[C@@H](NC(=O)c4ccccc4)c4ccccc4)C[C@@](O)([C@@H](OC(=O)c4ccccc4)[C@@H]2[C@]2(OC(C)=O)CO[C@H]12)C3(C)C [Compound 48]	1.9	–	0.2	–	–
CC(=O)O[C@H]1C(=O)[C@]2(C)C[C@@H](Sc3ccccc3)[C@H]3OC[C@@]3(OC(C)=O)[C@H]2[C@H](OC(=O)c2ccccc2)[C@]2(O)C[C@H](OC(=O)[C@H](O)[C@@H](NC(=O)c3ccccc3)c3ccccc3)C(C)=C1C2(C)C [Compound 52, 6b-thiophenyl-7-deoxy-paclitaxel]	0.58	–	–	–	114
CS[C@@H]1C[C@@]2(C)C(=O)[C@H](OC(C)=O)C3=C(C)[C@@H](OC(=O)[C@H](O)[C@@H](NC(=O)OC(C)(C)C)c4ccccc4)C[C@@](O)([C@@H](OC(=O)c4ccccc4)[C@@H]2[C@]2(OC(C)=O)CO[C@H]12)C3(C)C [Compound 24, 3'-NH-Boc-7-deoxy-6b-thiomethylpaclitaxel]	0.2	–	1.2	–	–
CCS[C@@H]1C[C@@]2(C)C(=O)[C@H](OC(C)=O)C3=C(C)[C@@H](OC(=O)[C@H](O)[C@@H](NC(=O)c4ccccc4)c4ccccc4)C[C@@](O)([C@@H](OC(=O)c4ccccc4)[C@@H]2[C@]2(OC(C)=O)CO[C@H]12)C3(C)C [Compound 30, 7-deoxy-6b-thioethylpaclitaxel]	0.9	–	0.4	–	–
CCOC(=O)N[C@@H](c1ccccc1)[C@@H](O)C(=O)O[C@H]1C[C@@]2(O)[C@@H](OC(=O)c3ccccc3)[C@@H]3[C@]4(OC(C)=O)CO[C@@H]4[C@H](SC)C[C@@]3(C)C(=O)[C@H](OC(C)=O)C(=C1C)C2(C)C [Compound 28, 3'-NH-ethylcarbonate-7-deoxy-6b-thiomethylpaclitaxel]	0.7	–	1.1	–	–
CC(=O)O[C@H]1C(=O)[C@]2(C)C[C@@H]([S+]([O-])CC#N)[C@H]3OC[C@@]3(OC(C)=O)[C@H]2[C@H](OC(=O)c2ccccc2)[C@]2(O)C[C@H](OC(=O)[C@H](O)[C@@H](NC(=O)c3ccccc3)c3ccccc3)C(C)=C1C2(C)C (single isomer, unassigned) [Compound 38, 6b-cyanomethylsulfoxo-7-deoxypaclitaxel]	28	–	0	–	–
C=CS[C@@H]1C[C@@]2(C)C(=O)[C@H](OC(C)=O)C3=C(C)[C@@H](OC(=O)[C@H](O)[C@@H](NC(=O)c4ccccc4)c4ccccc4)C[C@@](O)([C@@H](OC(=O)c4ccccc4)[C@@H]2[C@]2(OC(C)=O)CO[C@H]12)C3(C)C [Compound 50, 6b-thioethenyl-7-deoxypaclitaxel]	0.3	–	1.0	–	–
CC(=O)O[C@H]1C(=O)[C@]2(C)C[C@@H](SC(C)=O)[C@H]3OC[C@@]3(OC(C)=O)[C@H]2[C@H](OC(=O)c2ccccc2)[C@]2(O)C[C@H](OC(=O)[C@H](O)[C@@H](NC(=O)c3ccccc3)c3ccccc3)C(C)=C1C2(C)C [Compound 11, 7-deoxy-6β-thioacetoxypaclitaxel]	1.84	–	0.5	–	–
CS[C@@H]1C[C@@]2(C)C(=O)[C@H](OC(C)=O)C3=C(C)[C@@H](OC(=O)[C@H](O)[C@@H](NC(=O)c4ccccc4)c4ccccc4)C[C@@](O)([C@@H](OC(=O)c4ccccc4)[C@@H]2[C@]2(OC(C)=O)CO[C@H]12)C3(C)C [Compound 9, 7-deoxy-6β-thiomethylpaclitaxel]	1.1	–	1.1	–	–
CC(=O)O[C@H]1C(=O)[C@]2(C)C[C@@H]([S+](C)[O-])[C@H]3OC[C@@]3(OC(C)=O)[C@H]2[C@H](OC(=O)c2ccccc2)[C@]2(O)C[C@H](OC(=O)[C@H](O)[C@@H](NC(=O)OC(C)(C)C)c3ccccc3)C(C)=C1C2(C)C (single isomer, unassigned) [Compound 26, 3'-NH-Boc-7-deoxy-6b-methylsulfoxidepaclitaxel]	0.66	–	–	–	–
CSCS[C@@H]1C[C@@]2(C)C(=O)[C@H](OC(C)=O)C3=C(C)[C@@H](OC(=O)[C@H](O)[C@@H](NC(=O)c4ccccc4)c4ccccc4)C[C@@](O)([C@@H](OC(=O)c4ccccc4)[C@@H]2[C@]2(OC(C)=O)CO[C@H]12)C3(C)C [Compound 46, 6-b-methylthiomethylthio ether-7-deoxy paclitaxel]	3.5	–	0	–	–
